Test results from paper PMC7583056, “Synthesis, Characterisation and In Vitro Anticancer Activity of Catalytically Active Indole-Based Half-Sandwich Complexes” (Molecules, 2020).
Read-outs that look alike come from different tables or passages of the source.

Assays:
[1] = Stability in d6-DMSO by 1H-NMR; type: physicochemical; settings: 1.1 mM; for Time to reach equilibrium with second species (DMSO-adduct) / Release of the ind-py ligand (decoordination rate): 1H-NMR; for Stability in DMSO (in words): 24 h, after equilibrium with DMSO-adduct; for Release of the ind-py ligand (decoordination rate): over 24 h
Protocol: (§1) Owing to the limited aqueous solubility of the complexes, all the reactivity experiments were performed using a mixture MeOD/D2O (1:1 v/v) as a solvent. The stability of complexes 1–4 in MeOD/D2O was studied via ^1H-NMR spectroscopy over a period of 24 h. […] The stability of complexes 1–4 in dimethylsulfoxide (DMSO;1.1 mM) was also studied by ^1H-NMR spectroscopy over a period of 24 h (Figure S1). […] The ligand ind-py is also stable in MeOD/D2O over 24 h (Figure S1E).
Complexes 1–4 were also dissolved in d6-DMSO (1.1 mM) and ^1H-NMR spectra were recorded at t ≤ 10 min, 12 h and 24 h.

[2] = tested on: A2780 cells; experiment: Chemosensitivity assay (MTT) in A2780 cells; type: cell-based; settings: for Selectivity towards cancerous cells (A2780) versus normal cells (PNT2): from IC50 values A2780 vs PNT2
Description: (§2) The antiproliferative activity of the ind-py ligand and of complexes 1–4 against ovarian cancer A2780 (cisplatin sensitive) and A2780cisR (cisplatin resistant) cell lines was studied. The IC50 values obtained for all the complexes are shown in Table 2, together with values for cisplatin, which was used as a positive control (untreated cells for 100% viability as negative control). […] One of the major limitations of existing anticancer drugs is their poor selectivity towards cancer cells. Comparing the response of the cancer cell lines to the normal PNT2 cells provides a preliminary indication towards the selectivity of the compounds.
(§3) In vitro chemosensitivity tests were performed against A2780, A2780cisR and PNT2 cells. Cells were routinely maintained as monolayer cultures in RPMI medium supplemented with 10% foetal calf serum, penicillin (100 I.U./mL) and streptomycin (100 μg/mL), sodium pyruvate (1 mM) and L-glutamine (2 mM). For chemosensitivity studies, cells were incubated in 96-well plates at a concentration of 7.5 × 10^3 cells per well and the plates were incubated for 24 h at 37 °C and a 5% CO2 humidified atmosphere prior to drug exposure.
(§4) Complexes were dissolved in DMSO to provide stock solutions, which were further diluted with media to provide a range of final concentrations. Drug-media solutions were added to cells (the final concentration of DMSO was less than 1% (v/v) in all cases) and incubated for 24 h at 37 °C and 5% CO2 humidified atmosphere. The drug-media was removed from the wells and the cells were washed with PBS (100 μL, twice), and 100 μL of complete fresh media were added to each well. The plates were further incubated for 48 h at 37 °C in a 5% CO2 humidified atmosphere to allow for a period of recovery. 3-(4,5-dimethylthiazol-2-yl)-2,5-diphenyltetrazolium bromide (MTT) (20 μL, 2.5 mg/mL) was added to each well and incubated for 2 h at 37 °C and 5% CO2 humidified atmosphere. All solutions were then removed and 100 μL of DMSO was added to each well in order to dissolve the purple formazan crystals. A Thermo Scientific Multiskan EX microplate photometer was used to measure the absorbance in each well at 570 nm. Cell survival was determined as the absorbance of treated cells divided by the absorbance of controls and expressed as a percentage. The IC50 values were determined from plots of % survival against drug concentration. Each experiment was repeated in triplicates of triplicates and a mean value was obtained and stated as IC50 (μM) ± SD. Cisplatin was also used as a positive control.

[3] = tested on: A2780cisR cells; experiment: Chemosensitivity assay (MTT) in A2780cisR cells; type: cell-based; settings: for IC50: 24 h exposure + 48 h recovery, MTT, mean ± SD
Description: as §2, §3, §4

[4] = tested on: A2780 cells; experiment: Cell viability of A2780 cells, co-incubation with N-acetylcysteine (NAC); type: cell-based; settings: complex at IC50 concentration, NAC 0, 2, 5 and 10 mM
Protocol: In order to determine whether ROS formation is a plausible explanation for the activity of these compounds, A2780 cells were treated at IC50 concentrations of 1–4 in combination with increasing concentrations of N-acetylcysteine (NAC; 0, 2, 5 and 10 mM; Figure 4). NAC is a known compound that can act as an ROS scavenger in cells and can be used to counteract the effects of complexes that affect ROS levels. […] However, this effect is not observed with the Os and Ru analogues.
Cells were incubated in 96-well plates at a concentration of 7.5 × 10^3 cells per well and the plates were incubated for 24 h at 37 °C and a 5% CO2 humidified atmosphere prior to drug exposure. Complexes were dissolved in DMSO to provide stock solutions, which were further diluted with media to working concentrations. Solution of N-acetylcysteine (NAC) or sodium formate in media were also prepared. Drug-media solutions and NAC or sodium formate solutions were added to cells (final concentrations as follows: IC50 values for the complex; 0, 2, 5 and 10 mM for NAC; 0, 0.5, 1 and 2 mM for sodium formate; DMSO concentration was less than 1% (v/v) in all cases) and incubated for 24 h at 37 °C in a 5% CO2 humidified atmosphere. After 24 h of incubation, the drug-media was removed from the wells and the cells were washed with PBS (100 μL, twice), and 100 μL of complete fresh media were added to each well. The plates were further incubated for 48 h at 37 °C in a 5% CO2 humidified atmosphere to allow for a period of recovery. 3-(4,5-dimethylthiazol-2-yl)-2,5-diphenyltetrazolium bromide (MTT) (20 μL, 2.5 mg/mL) was added to each well and incubated for 2 h at 37 °C and 5% CO2 humidified atmosphere. All solutions were then removed and 100 μL of DMSO was added to each well in order to dissolve the purple formazan crystals. A Thermo Scientific Multiskan EX microplate photometer was used to measure the absorbance in each well at 570 nm. Cell survival was determined as the absorbance of treated cells divided by the absorbance of controls and expressed as a percentage.

[5] = tested on: PNT2 cells; experiment: Chemosensitivity assay (MTT) in PNT2 cells; type: cell-based; settings: 24 h exposure + 48 h recovery, MTT; mean ± SD
Description: as §2, §3, §4

[6] = Solubility as observed; type: physicochemical; settings: MeOD/D2O 1:1 v/v, 1.1 mM
Protocol: as §1

[7] = 24 h exposure + 48 h recovery, MTT, mean ± SD, read-out: IC50 A2780
[8] = A2780 and A2780cisR, read-out: IC50 values (in the range of)

| SMILES | Time to reach equilibrium with second species (DMSO-adduct) [1] | Stability in DMSO (in words) [1] | IC50 [2, 7] [µM] | IC50 relative to cisplatin (fold higher / less active) ([2]; A2780 and A2780cisR) [×] | IC50 [2, 8] [µM] | Selectivity towards cancerous cells (A2780) versus normal cells (PNT2) [2] [×] | IC50 [3] [µM] | Activity against A2780cisR compared with A2780 (cross-resistance) ([3]; comparison of IC50 values) | Effect on cell viability in NAC-supplemented cells [4] | IC50 [5] [µM] | Release of the ind-py ligand (decoordination rate) [1] [%] | Solubility in MeOD/D2O (in words) [6] |
| --- | --- | --- | --- | --- | --- | --- | --- | --- | --- | --- | --- | --- |
| Cc1ccc(C(C)C)cc1.[Cl-].[Os+2].c1ccc(-c2cc3ccccc3[n-]2)nc1 [complex 4, [(p-cym)Os(ind-py)Cl]] | less than 10 min | stable | 18.8 ± 0.3 | 3 | ~20 | 2 | 21.5 ± 1.3 | no significant difference in activity | not observed | 34.2 ± 2.2 |  |  |
| Cc1c(C)c(C)[c-](C)c1C.[Cl-].[Ir+3].c1ccc(-c2cc3ccccc3[n-]2)nc1 [complex 2, [Cp*Ir(ind-py)Cl]] |  |  | 22 ± 2.5 | 3 | ~20 |  | 32.7 ± 1.7 |  | significant decrease of the cell viability | 32.1 ± 3.9 | 25 | poor solubility |
| Cc1ccc(C(C)C)cc1.[Cl-].[Ru+2].c1ccc(-c2cc3ccccc3[n-]2)nc1 [complex 3, [(p-cym)Ru(ind-py)Cl]] | less than 10 min | stable | 47.3 ± 4.7 |  |  |  | 62.8 ± 5.3 |  | not observed | 54.3 ± 5.4 |  |  |
| Cc1c(C)c(C)[c-](C)c1C.[Cl-].[Rh+3].c1ccc(-c2cc3ccccc3[n-]2)nc1 [complex 1, [Cp*Rh(ind-py)Cl]] |  |  | 13 ± 1.7 | 3 | ~20 | 3 | 21.5 ± 3.5 |  | significant decrease of the cell viability | 34.7 ± 6.1 | 25 |  |
